Data on 28 molecules can be found in patent publication US7638540B2, “Benzofuran compound and medicinal composition containing the same” (The New Industry Research Organization, priority 2003, dated 2009).

Tested on in the first series: not given
Experiment: not given
Settings: not given
On to `CCN(CC)C(=O)/C=C(\C)c1ccc(OC(C)c2ccccc2)c2oc(C(C)=O)cc12` (centres unmarked) [Example 1, (E)-3-[2-acetyl-7-(1-phenylethoxy)benzofuran-4-yl]-N,N-diethyl-2-butenamide], for which the melting point lay within 70.8 to 73 °C. Same read-out and setting: as for `COc1ccc(C(=O)Nc2c(Cl)oc3ccc(Br)cc23)cc1` [Example 200, N-(5-bromo-2-chlorobenzofuran-3-yl)-4-methoxybenzamide], the figure is 195.5 to 197 °C. Same read-out and setting: as for `O=C(CCCl)Nc1c(C(=O)/C=C/c2ccccc2)oc2ccc(Br)cc12` [Example 201, (E)-N-[5-bromo-2-(3-phenylacryloyl)-benzofuran-3-yl]-3-chloropropionamide], the figure is 204.7 to 206.8 °C. On the same count and under the same terms, as for `COc1ccc(/C=C/C(=O)c2oc3ccc(Br)cc3c2NC(=O)CCNCc2ccccc2)cc1` [Example 203, (E)-3-benzylamino-N-{5-bromo-2-[3-(4-methoxyphenyl)acryloyl]benzofuran-3-yl}propionamide], the figure is 123.8 to 126.5 °C; as for `COc1cccc2c(NC(=O)CCCl)c(C(C)=O)oc12` [Example 204, N-(2-acetyl-7-methoxybenzofuran-3-yl)-3-chloropropionamide], 169.1 to 170.2 °C; as for `COc1cccc2c(NC(=O)CCl)c(C(C)=O)oc12` [Example 205, N-(2-acetyl-7-methoxybenzofuran-3-yl)-2-chloroacetamide], 186.2 to 188.3 °C. Regarding `COc1cccc2c(NC(C)=O)c(C(C)=O)oc12` [Example 208, N-(2-acetyl-7-methoxybenzofuran-3-yl)acetamide], the melting point lay within 206.6 to 209.5 °C. Still for that read-out and setting: then `COc1cc(C(=O)Nc2c(C(C)=O)oc3ccc(Br)cc23)cc(OC)c1OC` [Example 210, N-(2-acetyl-5-bromobenzofuran-3-yl)-3,4,5-trimethoxybenzamide], with 212 to 212.3 °C; and `COc1ccc(Br)c2c(NC(C)=O)c(C(C)=O)oc12` [Example 211, N-(2-acetyl-4-bromo-7-methoxybenzofuran-3-yl)acetamide], with 235.3 to 237.8 °C; and `Brc1ccc2oc(-c3csc(-c4ccccc4)n3)cc2c1` [Example 212, 4-(5-bromobenzofuran-2-yl)-2-phenylthiazole], with 185.5 to 187.8 °C. Same read-out and setting: as for `Clc1ccc(-c2c(-c3csc(-c4ccccc4)n3)oc3c(Cl)cccc23)cc1` [Example 213, 4-[7-chloro-3-(4-chlorophenyl)benzofuran-2-yl]-2-phenylthiazole], the figure is 165.5 to 166 °C. In turn, `Cc1nc(-c2oc3c(Cl)cccc3c2-c2ccc(Cl)cc2)cs1` [Example 214, 4-[7-chloro-3-(4-chlorophenyl)benzofuran-2-yl]-2-methylthiazole] registered a melting point of 156.4 to 158.4 °C. Molecule `COc1ccc2oc(-c3csc(-c4ccccc4)n3)c(-c3ccc(Cl)cc3)c2c1` [Example 215, 4-[3-(4-chlorophenyl)-5-methoxybenzofuran-2-yl]-2-phenylthiazole] showed a melting point of 151.3 to 153.3 °C. On the same count and under the same terms, then `Cc1nc(-c2cc3cc(Br)ccc3o2)cs1` [Example 216, 4-(5-bromobenzofuran-2-yl)-2-methylthiazole], with 167.4 to 167.9 °C. Same read-out and setting: as for `COc1ccc2oc(-c3csc(C)n3)c(-c3ccc(Cl)cc3)c2c1` [Example 217, 4-[3-(4-chlorophenyl)-5-methoxybenzofuran-2-yl]-2-methylthiazole], the figure is 105.8 to 106.5 °C; as for `COc1ccc2oc(-c3csc(N)n3)c(-c3ccc(Cl)cc3)c2c1` [Example 218, 4-[3-(4-chlorophenyl)-5-methoxybenzofuran-2-yl]thiazol-2-ylamine], 196 to 197.7 °C. Still for that read-out and setting: as for `COc1ccc2oc(-c3csc(NC(=O)c4cnoc4C)n3)c(-c3ccc(Cl)cc3)c2c1` [Example 220, 5-methylisoxazole-4-carboxylic acid {4-[3-(4-chlorophenyl)-5-methoxybenzofuran-2-yl]thiazol-2-yl}amide], the figure is 216.8 to 218.7 °C; as for `COc1ccc2oc(-c3nc(N=CN(C)C)sc3C=O)c(-c3ccc(Cl)cc3)c2c1` [Example 221, N′-{4-[3-(4-chlorophenyl)-5-methoxybenzofuran-2-yl]-5-formylthiazol-2-yl}-N,N-dimethylformamidine], 203.5 to 205 °C; as for `COc1ccc2oc(-c3nc(N=CN(C)C)sc3/C=N/CCO)c(-c3ccc(Cl)cc3)c2c1` [Example 223, N′-{4-[3-(4-chlorophenyl)-5-methoxybenzofuran-2-yl]-5-[(2-hydroxyethylimino)methyl]thiazol-2-yl}-N,N-dimethylformamidine], 167.8 to 169.2 °C.

Another series deals with LTB4 receptor. Description: TXB2 release from guinea pig eosinophils stimulated with LTB4 (LTB4 receptor antagonist activity). The following applies: 10^−3 M test compound (37.5 μl) added to 300 μl cell suspension, then 10^−7 M LTB4 (37.5 μl), 37° C. 15 min, positive control 100, negative control 0, N.D. = TXB2 concentration at measurement limit or less. In kind it is cell-based. The method, then:
The LTB4 receptor antagonist activity of the test compound was examined using, as an index, thromboxane B2 (TXB2) released when stimulating eosinophil of guinea pig with LTB4.
Based on the method described in Japanese Journal of Pharmacology, vol. 70, p. 337-345 (1996) etc., eosinophils of guinea pig were prepared. A cell suspension (300 μl, 1.25×10^6 cells/ml) was placed in a 5 ml polypropylene test tube and, after incubation at 37° C. for 5 min., 10^−3 M test compound (37.5 μl) dissolved in 0.1% DMSO aqueous solution was added and the cells were continuously cultured for 5 min. Then, 10^−7 M LTB4 (37.5 μl) was added to induce the reaction and the cells were incubated at 37° C. for 15 min. The reaction was quenched in ice water, and the culture was centrifuged at 4° C., 3000 rpm for 10 min. The obtained supernatant was prepared as a sample for TXB2 measurement, and preserved at −80° C. before use for the measurement. The quantitation of TXB2 was performed using a TXB2 enzyme immunoassay kit (manufactured by Cayman Chemical Company). The release ratio (%) of TXB2 from the eosinophils was determined by the following formula: release ratio (%) of TXB2=[(average value of test compound administration group−average value of negative control group)/(average value of positive control group−average value of negative control group)]×100
As used herein, the positive control group means a group to which stimulation with LTB4 was applied but the same volume of a medium was given instead of the test compound, and the negative control group means a group to which stimulation with LTB4 was not applied, the same volume of a medium was given instead of LTB4, and the same volume of a medium was given instead of the test compound. When the release ratio of TXB2 is smaller than 0, it means that the measured TXB2 concentration was lower than that of the negative control group. When the TXB2 concentration in the sample was the measurement limit or less, N.D. is indicated.
For `CC(=CC(=O)N1CCOCC1)c1cc2cccc(OC(c3ccccc3)c3ccccc3)c2o1` (stereo in doubt) [Example 42, (E)-3-(7-benzhydryloxybenzofuran-2-yl)-1-morpholino-2-buten-1-one], the “Amount of TXB2 release (%)” value is on record as 13.83%.

For `CCN(CC)C(=O)/C=C(\C)c1ccc(OC(C)c2ccccc2)c2oc(C(C)=O)cc12` (centres unmarked) [Example 1, (E)-3-[2-acetyl-7-(1-phenylethoxy)benzofuran-4-yl]-N,N-diethyl-2-butenamide], the “Amount of TXB2 release (%)” value stood at 0.42%. Same read-out and setting: as for `COc1ccc(CCNC(=O)/C=C(\C)c2ccc(OC(C)c3ccccc3)c3oc(C(C)=O)cc23)cc1OC` (stereo not drawn) [Example 8, (E)-3-[2-acetyl-7-(l-phenylethoxy)benzofuran-4-yl]-N-[2-(3,4-dimethoxyphenyl)ethyl]-2-butenamide], the figure is 41.73%; as for `CCOC(=O)CCCOc1ccc(/C(C)=C/C(=O)N(CC)CC)c2cc(C(C)=O)oc12` [Example 14, Ethyl (E)-4-[2-acetyl-4-(2-diethylcarbamoyl-1-methylvinyl)benzofuran-7-yloxy]butyrate], 44.81%; as for `CC(=O)c1oc2ccc(/C(C)=C/C(=O)N3CCN(c4ccccc4)CC3)cc2c1N` [Example 18, (E)-3-(2-acetyl-3-aminobenzofuran-5-yl)-1-(4-phenylpiperazin-1-yl)-2-buten-1-one], 53.91%. For the molecule `CCN(CC)C(=O)/C=C(/C)c1cc2cccc(OC(C)C)c2o1` [Example 34, (Z)-3-(7-isopropoxybenzofuran-2-yl)-N,N-diethyl-2-butenamide], the “Amount of TXB2 release (%)” value is recorded as −0.063%. Same read-out and setting: then `CCOC(=O)CCCOc1ccc(Br)c2cc(/C(C)=C/C(=O)N(CC)CC)oc12` [Example 35], with 1.02%.

For the molecule `CCN(CC)C(=O)/C=C(\C)c1cc2cccc(OC(c3ccccc3)c3ccccc3)c2o1` [Example 37, (E)-3-(7-benzhydryloxybenzofuran-2-yl)-N,N-diethyl-2-butenamide], the “Amount of TXB2 release (%)” value stood at 15.69%. The same measure, in the same setting: as for `CCNS(=O)(=O)c1ccc(OCCCC(=O)OCC)c2oc(/C(C)=C\C(=O)N(CC)CC)cc12` [Example 48, Ethyl (Z)-4-[2-(2-diethylcarbamoyl-1-methylvinyl)-4-ethylsulfamoylbenzofuran-7-yloxy]butyrate], the figure is 53.91%; as for `COc1ccc(CCNC(=O)/C=C(\C)c2ccc3oc(C(C)=O)c(NC(=O)c4cnoc4C)c3c2)cc1OC` [Example 72, (E)-N-(2-acetyl-5-(2-[2-(3,4-dimethoxyphenyl)ethylcarbamoyl]-1-methylvinyl)benzofuran-3-yl)-5-methylisoxazole-4-carboxamide], 84.46%.

As a reminder, the melting point is the temperature, or range, at which the solid turns liquid.
